± gives the expanded uncertainty stated by the source.
Assay: activity coefficient (dimensionless); of the first substance listed, at infinite dilution; xn = mol fraction of the nth substance listed
Details: Liquid, Chromatography, x1 = 0

C#CCCCCC [1-heptyne] + O=Cc1ccco1
activity coefficient (278.15 K): 20 ± 1.7
activity coefficient (298.15 K): 17.9 ± 1.5

C#CCCCC [1-hexyne] + O=Cc1ccco1
activity coefficient (278.15 K): 6.27 ± 0.54
activity coefficient (298.15 K): 5.09 ± 0.44

c1ccccc1 [benzene] + O=Cc1ccco1
activity coefficient (278.15 K): 2.55 ± 0.22
activity coefficient (298.15 K): 2.45 ± 0.21

C1CCCCCC1 [cycloheptane] + O=Cc1ccco1
activity coefficient (278.15 K): 18.6 ± 1.6
activity coefficient (298.15 K): 15.5 ± 1.3

C1CCCCC1 [cyclohexane] + O=Cc1ccco1
activity coefficient (278.15 K): 16.8 ± 1.5
activity coefficient (298.15 K): 13.6 ± 1.2

C1CCCC1 [cyclopentane] + O=Cc1ccco1
activity coefficient (278.15 K): 14.2 ± 1.2
activity coefficient (298.15 K): 13.3 ± 1.2

CCCCCCC [heptane] + O=Cc1ccco1
activity coefficient (278.15 K): 38.1 ± 3.3
activity coefficient (298.15 K): 33.4 ± 2.9

C=CCCCC [hex-1-ene] + O=Cc1ccco1
activity coefficient (278.15 K): 15.2 ± 1.3
activity coefficient (298.15 K): 15 ± 1.3

CCCCCC [hexane] + O=Cc1ccco1
activity coefficient (278.15 K): 31.9 ± 2.8
activity coefficient (298.15 K): 27.8 ± 2.4

CCCCC [pentane] + O=Cc1ccco1
activity coefficient (278.15 K): 24.3 ± 2.1
activity coefficient (298.15 K): 21.6 ± 1.9
